Source: patent publication US11479551B2, “MTA-cooperative PRMT5 inhibitors” (Mirati Therapeutics, Inc., priority 2019, dated 2022)
Like-named read-outs stand apart in the source and are kept apart here.

What was measured:
PRMT5/MEP50 complex [1] = biological target: T1, PRMT5/MEP50 complex (Homo sapiens (Human), UniProt O14744); experiment: PRMT5:MEP50 HotSpot Assay (full-length histone H2A substrate, plus and minus MTA); format: biochemical; conditions: in the presence of 2 μM MTA
Outline: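 Tritium incorporated into recombinant full-length histone H2A was counted by scintillation after stopped reactions were captured on filter paper.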

[2] = system: HCT116 homozygous MTAP knockout cells; experiment: Proliferation assay (CellTiter-Glo, 10 days of treatment), HCT116 MTAP knockout; format: cell-based; conditions: read-out: Proliferation HCT116MTAP_KO IC50
Outline: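 Viability of the CRISPR/Cas9 homozygous MTAP-knockout HCT116 line was read by CellTiter-Glo after 10 days of PRMT5 inhibitor exposure, with IC50 derived from the dose response. Compound was given the day after seeding and renewed at an identical concentration when cells were split 1:10 on day 6.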

[3] = system: PRMT5-dependent Symmetric Di-methyl Arginine signal in HCT116 homozygous MTAP knockout cells; experiment: SYM11 In-Cell Western, HCT116 MTAP knockout; format: cell-based; conditions: HCT116 homozygous MTAP knockout cells, 4 days of treatment, SYM11/DRAQ5 ratio, read-out: In-cell-Western (SYM11) HCT116 MTAP_KO IC50
PRMT5/MEP50 complex [4] = biological target: T1, PRMT5/MEP50 complex; experiment: PRMT5:MEP50 FlashPlate Assay (histone H4 peptide substrate, plus and minus MTA); format: biochemical
Protocol: The PRMT5 inhibitory activity of compounds of the present invention was determined using either a PRMT5:MEP50 FlashPlate Assay (Reaction Biology Corporation) or a PRMT5:MEP50 HotSpot Assay (Reaction Biology Corporation).
1. PRMT5:MEP50 FlashPlate Assay

HCT116 parental cells = experiment: Proliferation assay (CellTiter-Glo, 10 days of treatment), HCT116 parental; format: cell-based
Protocol: (§1) Control samples were analyzed in parallel.
Briefly, on Day 0, 250 HCT116 parental or HCT116 homozygous MTAP knockout cell were seeded in 96 well plates in McCoy's 5A supplemented with 10% fetal bovine serum and pen/strep and the cells were incubated overnight at 37° C. plus 5% CO2.
The following day, cells were treated with DMSO vehicle control or a dose response of PRMT5 inhibitors and incubated at 37 C plus 5% CO2 for five days. On Day 6, the cells were trypsinized and split 1:10 into new 96-well plates with fresh medium containing the same concentration of PRMT5 inhibitor and incubated for an additional 5 days at 37° C. plus 5% CO^2.
On Day 11, the viability of the cells was measured using a CTG assay kit (CellTiter-Glo; Promega cat.no G7573) in accordance with the manufacturer's instructions. The IC50 values for each compound after 10 days of treatment were calculated using GraphPad PRISM software.

[5] = system: PRMT5-dependent Symmetric Di-methyl Arginine signal in HCT116 parental cells; experiment: SYM11 In-Cell Western, HCT116 parental; format: cell-based; conditions: 4 days of treatment, SYM11/DRAQ5 ratio
Protocol: as §1
Briefly, on Day 0, 2,000 HCT116 parental or HCT116 homozygous MTAP knockout cells were seeded in 96 well plates in McCoy's 5A supplemented with 10% fetal bovine serum and pen/strep and the cells were incubated overnight at 37° C. plus 5% CO2. The following day, cells were treated with DMSO vehicle control or a dose response of PRMT5 inhibitors, and incubated at 37° C. plus 5% CO^2 for four days.
After 4 days of treatment, the cells were fixed by adding 50 μl of 4% paraformaldehyde solution to each well and the cells were incubated for 20 min at room temperature. The paraformaldehyde solution was removed, 150 μl of ice-cold methanol was added and the plate was placed −20° C. for 10 minutes. The methanol was removed, 150 μl of Odyssey Blocking buffer+0.05% Tween20 was added and the plate was incubated at room temperature with shaking for one hour.
The primary SYM11 antibody solution was removed by aspiration and the wells were washed three consecutive times with phosphate buffered saline containing 0.1% Tween-20 (PBST).
The secondary antibody solution was removed by aspiration and the wells were washed three consecutive times with PB ST.
The SYM11 signal and the DRAQ5 signal were quantified using a Li-Cor Odyssey machine reading at […], respectively. The SYM11/DRAQ5 ratio was used to calculate the inhibition of Symmetric Dimethyl Arginine as percent of DMSO control.

[6] = IC50 + 2 μM MTA (nM), in the presence of 2 μM MTA
[7] = in the absence of MTA, read-out: IC50

T1 sequence (O14744 2-637): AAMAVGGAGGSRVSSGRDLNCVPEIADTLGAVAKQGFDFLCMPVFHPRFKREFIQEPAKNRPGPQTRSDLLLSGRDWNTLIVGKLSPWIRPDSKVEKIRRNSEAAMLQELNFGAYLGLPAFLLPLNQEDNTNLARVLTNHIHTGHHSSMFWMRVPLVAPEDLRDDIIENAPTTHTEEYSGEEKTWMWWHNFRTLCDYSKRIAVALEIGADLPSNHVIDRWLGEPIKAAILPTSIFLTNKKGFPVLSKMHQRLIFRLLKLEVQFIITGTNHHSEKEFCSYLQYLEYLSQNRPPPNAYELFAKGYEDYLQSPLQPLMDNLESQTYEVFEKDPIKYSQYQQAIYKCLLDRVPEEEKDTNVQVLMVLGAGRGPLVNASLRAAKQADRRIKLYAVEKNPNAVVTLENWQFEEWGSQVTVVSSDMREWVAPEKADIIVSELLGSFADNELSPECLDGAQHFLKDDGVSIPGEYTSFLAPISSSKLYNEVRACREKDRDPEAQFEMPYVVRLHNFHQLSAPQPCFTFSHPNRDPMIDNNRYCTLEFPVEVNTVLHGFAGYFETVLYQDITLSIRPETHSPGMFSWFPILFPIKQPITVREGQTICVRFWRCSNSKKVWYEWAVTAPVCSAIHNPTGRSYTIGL
T1 sequence (Q9BQA1 2-342 partner): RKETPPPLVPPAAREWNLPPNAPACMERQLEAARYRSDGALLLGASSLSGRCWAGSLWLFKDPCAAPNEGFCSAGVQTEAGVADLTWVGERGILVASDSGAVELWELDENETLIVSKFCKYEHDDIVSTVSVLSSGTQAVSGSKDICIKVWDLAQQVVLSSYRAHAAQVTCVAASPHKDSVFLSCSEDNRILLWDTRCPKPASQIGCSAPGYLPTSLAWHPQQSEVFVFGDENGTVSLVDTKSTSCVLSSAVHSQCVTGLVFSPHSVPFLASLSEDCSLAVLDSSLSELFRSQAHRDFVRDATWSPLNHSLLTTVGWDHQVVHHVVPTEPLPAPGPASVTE

CC(N)c1n[nH]c(=O)c2ccc(-c3cnn(C)c3-c3cccc(Cl)c3C#N)cc12 (single isomer, unassigned) [Example 9-2, 2-[4-[4-(1-aminoethyl)-1-oxo-2H-phthalazin-6-yl]-2-methyl-pyrazol-3-yl]-6-chloro-benzonitrile]
IC50 (PRMT5/MEP50 complex [1]; IC50 + 2 μM MTA): > 10000 nM
IC50 [2]: > 10000 nM
IC50 [3]: > 1000 nM
IC50 (PRMT5/MEP50 complex [4]; [6]): > 10000 nM

CC(N)c1n[nH]c(=O)c2ccc(-c3cnn(C)c3-c3ccc4ccccc4c3C#N)cc12 (single isomer, unassigned) [Example 9-5, 2-[4-[4-(1-aminoethyl)-1-oxo-2H-phthalazin-6-yl]-2-methyl-pyrazol-3-yl]naphthalene-1-carbonitrile]
IC50 (HCT116 parental cells; Homo sapiens, HCT-116, 240 h): 6440 nM
IC50 ([5]; Homo sapiens, HCT-116, 96 h): > 1000 nM
IC50 [2]: 125 nM
IC50 [3]: 42 nM

Cn1ncc(-c2ccc3c(=O)[nH]nc(CN)c3c2)c1-c1c(F)cc2ccccc2c1C#N (single isomer, unassigned) [Example 16-1]
IC50 (PRMT5/MEP50 complex [1]; read-out: IC50 + 2 μM MTA): 38 nM
IC50 (HCT116 parental cells): 757 nM
IC50 [5]: 316 nM
IC50 [3]: 2 nM

Cn1ncc(-c2ccc3c(=O)[nH]nc(CN)c3c2)c1-c1ccc(Cl)cc1C#N [Example 4-101, 2-(4-(4-(aminomethyl)-1-oxo-1,2-dihydrophthalazin-6-yl)-1-methyl-1H-pyrazol-5-yl)-5-chlorobenzonitrile]
IC50 (PRMT5/MEP50 complex [1]; IC50 + 2 μM MTA): 892 nM
IC50 ([5]; Homo sapiens, HCT-116, 96 h): 6670 nM
IC50 ([2]; Homo sapiens, HCT-116, 240 h): 2310 nM
IC50 ([3]; Homo sapiens, HCT-116, 96 h): 376 nM
IC50 (PRMT5/MEP50 complex [4]; [6]): 0.5 nM
IC50 (PRMT5/MEP50 complex [4]; [7]): 17 nM

Cn1ncc(-c2ccc3c(=O)[nH]nc(CN)c3c2)c1-c1cc(Cl)ccc1C#N [Example 4-103, 2-(4-(4-(aminomethyl)-1-oxo-1,2-dihydrophthalazin-6-yl)-1-methyl-1H-pyrazol-5-yl)-4-chlorobenzonitrile]
IC50 ([5]; Homo sapiens, HCT-116, 96 h): 6670 nM
IC50 ([2]; Homo sapiens, HCT-116, 240 h): 4390 nM
IC50 ([3]; Homo sapiens, HCT-116, 96 h): 255 nM
IC50 (PRMT5/MEP50 complex [4]; [6]): 0.5 nM
IC50 (PRMT5/MEP50 complex [4]; [7]): 115 nM

COc1ccc(C#N)c(-c2c(-c3ccc4c(=O)[nH]nc(CN)c4c3)cnn2C)c1 [Example 4-104, 2-(4-(4-(aminomethyl)-1-oxo-1,2-dihydrophthalazin-6-yl)-1-methyl-1H-pyrazol-5-yl)-4-methoxybenzonitrile]
IC50 (PRMT5/MEP50 complex [1]; IC50 + 2 μM MTA): 794 nM
IC50 ([5]; Homo sapiens, HCT-116, 96 h): 3330 nM
IC50 ([2]; Homo sapiens, HCT-116, 240 h): 5320 nM
IC50 ([3]; Homo sapiens, HCT-116, 96 h): 391 nM
IC50 (PRMT5/MEP50 complex [4]; [6]): 0.5 nM
IC50 (PRMT5/MEP50 complex [4]; [7]): 28 nM

Cc1ccc(C#N)c(-c2c(-c3ccc4c(=O)[nH]nc(CN)c4c3)cnn2C)c1 [Example 4-105, 2-(4-(4-(aminomethyl)-1-oxo-1,2-dihydrophthalazin-6-yl)-1-methyl-1H-pyrazol-5-yl)-4-methylbenzonitrile]
IC50 (PRMT5/MEP50 complex [1]; IC50 + 2 μM MTA): 1000 nM
IC50 ([5]; Homo sapiens, HCT-116, 96 h): 10000 nM
IC50 ([2]; Homo sapiens, HCT-116, 240 h): 1400 nM
IC50 ([3]; Homo sapiens, HCT-116, 96 h): 469 nM
IC50 (PRMT5/MEP50 complex [4]; [6]): 1.8 nM
IC50 (PRMT5/MEP50 complex [4]; [7]): 71 nM

Cc1ccc(-c2c(-c3ccc4c(=O)[nH]nc(CN)c4c3)cnn2C)c(C#N)c1 [Example 4-106, 2-(4-(4-(aminomethyl)-1-oxo-1,2-dihydrophthalazin-6-yl)-1-methyl-1H-pyrazol-5-yl)-5-methylbenzonitrile]
IC50 (PRMT5/MEP50 complex [1]; IC50 + 2 μM MTA): 816 nM
IC50 ([5]; Homo sapiens, HCT-116, 96 h): 3330 nM
IC50 ([2]; Homo sapiens, HCT-116, 240 h): 1600 nM
IC50 ([3]; Homo sapiens, HCT-116, 96 h): 261 nM
IC50 (PRMT5/MEP50 complex [4]; [6]): 0.5 nM
IC50 (PRMT5/MEP50 complex [4]; [7]): 56 nM

COc1cccc(-c2c(-c3ccc4c(=O)[nH]nc(CN)c4c3)cnn2C)c1C#N [Example 4-107, 2-(4-(4-(aminomethyl)-1-oxo-1,2-dihydrophthalazin-6-yl)-1-methyl-1H-pyrazol-5-yl)-6-methoxybenzonitrile]
IC50 (PRMT5/MEP50 complex [1]; IC50 + 2 μM MTA): 760 nM
IC50 ([5]; Homo sapiens, HCT-116, 96 h): 10000 nM
IC50 ([2]; Homo sapiens, HCT-116, 240 h): 1060 nM
IC50 ([3]; Homo sapiens, HCT-116, 96 h): 31 nM
IC50 (PRMT5/MEP50 complex [4]; [6]): 0.5 nM
IC50 (PRMT5/MEP50 complex [4]; [7]): 37 nM
